Broadly, the inhibition is the share of the control response that was lost under treatment.

Our source for the inhibition and zinc-chelating property values is patent US7625713B2, “Process for identifying a ligand that binds to the NEP binding site for the SMR1 pentapeptide” (Institut Pasteur, priority 2000, dated 2009).

SMILES strings stand for the structures. Where a SMILES comes first, the peptide text is derived from it.

The target in series [1] is T1, purified rabbit renal NEP (Oryctolagus cuniculus, UniProt P08049).
T1 construct: purified rabbit renal NEP; from tissue; host or cells: rabbit kidney (purified enzyme)
T1 sequence (P08049 1-750): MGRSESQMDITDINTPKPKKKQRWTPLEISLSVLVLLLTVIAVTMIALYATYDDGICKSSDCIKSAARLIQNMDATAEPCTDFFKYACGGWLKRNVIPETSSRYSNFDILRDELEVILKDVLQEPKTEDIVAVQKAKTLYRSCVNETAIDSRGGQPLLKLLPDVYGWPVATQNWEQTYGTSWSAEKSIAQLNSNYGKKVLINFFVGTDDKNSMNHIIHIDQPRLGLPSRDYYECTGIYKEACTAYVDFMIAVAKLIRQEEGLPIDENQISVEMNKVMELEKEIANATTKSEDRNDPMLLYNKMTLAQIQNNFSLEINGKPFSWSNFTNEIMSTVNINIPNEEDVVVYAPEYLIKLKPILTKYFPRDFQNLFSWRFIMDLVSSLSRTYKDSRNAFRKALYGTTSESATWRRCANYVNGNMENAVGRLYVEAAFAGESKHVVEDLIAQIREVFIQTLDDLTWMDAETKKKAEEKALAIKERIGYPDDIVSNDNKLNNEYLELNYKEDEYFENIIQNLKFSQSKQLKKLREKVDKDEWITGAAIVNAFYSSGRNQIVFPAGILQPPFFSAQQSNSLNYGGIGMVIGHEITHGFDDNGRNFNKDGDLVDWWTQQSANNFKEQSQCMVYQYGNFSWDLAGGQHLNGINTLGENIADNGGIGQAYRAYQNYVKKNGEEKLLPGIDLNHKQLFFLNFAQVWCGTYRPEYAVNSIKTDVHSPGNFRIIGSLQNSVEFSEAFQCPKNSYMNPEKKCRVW
In words: Substance P catabolism by purified rabbit renal NEP. Format: biochemical. The settings on record: substance P as substrate, read-out: inhibition of substance P catabolism by the soluble enzyme.

The next series can be described thus: Chelating-FPLC analyses. Format: physicochemical. The source says: Otherwise, tissue-uptake of the sialorphin peptide involves a complex molecular species, including a cation mineral element, as the peptide was only recovered in the presence of a strong divalent metal ion chelating agent (Rougeot, C. et al. (1997), American Journal of Physiology 273, […]-20). […] The zinc ion, an essential component of the NEP catalytic site, is a common target of synthetic potent NEP inhibitors described elsewhere.

Regarding `N=C(N)NCCC[C@H](NC(=O)[C@@H]1CCCN1C(=O)[C@H](CC(N)=O)NC(=O)[C@H](Cc1c[nH]cn1)NC(=O)[C@@H](N)CCC(N)=O)C(=O)O` [sialorphin, Gln-His-Asn-Pro-Arg] (H-QHNPR-OH; N-terminus and C-terminus assumed), the inhibition at 5 µM in series [1] was determined as 46%. Besides, the zinc-chelating property result in the series “Chelating-FPLC analyses” was “selective and strong zinc-chelating group”.
